Results taken from PMC4180036 (Clinical pharmacology and therapeutics, 2014).

Columns and labels:
[1] = Population pharmacokinetic modeling and covariate analysis; assay type: in vivo, human
[2] = in vivo
[3] = Base model (n=26), Bootstrap median (95% CI)
[4] = Base model (n=26), Estimate (CV %)
[5] = Covariate model (LBM, n=26), Bootstrap median (95% CI)
[6] = Covariate model (LBM, n=26), Estimate (CV %)

θCLM, metabolite clearance [1, 3]: 23.60 (4.76, 47.91) L/h | θV2, metabolite volume of distribution [1, 3]: 7.67 (0.09, 21.91) L | θCLM, metabolite clearance [1, 4]: 21.5 (8.9) L/h | θV2, metabolite volume of distribution [1, 4]: 7.18 (62.8) L | θCLM, metabolite clearance [1, 5]: 27.80 (4.04, 55.60) L/h | θV2, metabolite volume of distribution [1, 5]: 8.99 (0.04, 26.11) L | θCLM, metabolite clearance [1, 6]: 32.6 (10.4) L/h | θV2, metabolite volume of distribution [1, 6]: 11.6 (12.1) L | measurable OSI-420 in plasma [2]: no measureable OSI-420
SMILES: C#Cc1cccc(Nc2ncnc3cc(OCCOC)c(OCCO)cc23)c1 [OSI-420]
OSI-420 detection in plasma [2]: ƛ OSI-420 was undetectable in one patient treated on Arm B
